Experimental data: patent US20220289708A1, “SUBSTITUTED N-PHENYL URACILS, SALTS THEREOF AND THEIR USE AS HERBICIDAL AGENTS” (Bayer Aktiengesellschaft, priority 2019, published 2022)

Assays:
Assay type in all cases: in vivo
Echinochloa crus-galli [1] = assay: Post-emergence herbicidal action; conditions: rated visually after about 3 weeks vs untreated controls
Method in brief: (§1)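 Post-em spray, one-leaf stage (2–3 wk post-sowing), sandy loam, greenhouse. WP/EC in aqueous suspension/emulsion + 0.5% additive, 600 l/ha water, ≤20 g/ha. Visual % rating ~3 wk vs untreated: 100% dead, 0% like control.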

Digitaria sanguinalis [2] = assay: Post-emergence herbicidal action; conditions: rated visually after about 3 weeks vs untreated controls
Method in brief: as §1

Abutilon theophrasti [3] = assay: Post-emergence herbicidal action; conditions: rated visually after about 3 weeks vs untreated controls
Method in brief: as §1

Amaranthus retroflexus [4] = assay: Post-emergence herbicidal action; conditions: rated visually after about 3 weeks vs untreated controls
Method in brief: as §1

Matricaria inodora [5] = assay: Post-emergence herbicidal action; conditions: rated visually after about 3 weeks vs untreated controls
Method in brief: as §1

Hordeum murinum = assay: Post-emergence herbicidal action; conditions: application rate 20 g/ha
Method in brief: as §1

Pharbitis purpurea [6] = assay: Post-emergence herbicidal action; conditions: rated visually after about 3 weeks vs untreated controls
Method in brief: as §1

Stellaria media = assay: Post-emergence herbicidal action; conditions: application rate 5 g/ha, rated visually after about 3 weeks vs untreated controls
Method in brief: as §1

Viola tricolor [7] = assay: Post-emergence herbicidal action
Method in brief: as §1

Alopecurus myosuroides [8] = assay: Post-emergence herbicidal action; conditions: rated visually after about 3 weeks vs untreated controls
Method in brief: as §1

Polygonum convolvulus [9] = assay: Post-emergence herbicidal action
Method in brief: as §1

Lolium rigidum [10] = assay: Post-emergence herbicidal action; conditions: application rate 20 g/ha, rated visually after about 3 weeks vs untreated controls
Method in brief: as §1

Veronica persica [11] = assay: Post-emergence herbicidal action
Method in brief: as §1

Avena fatua [12] = assay: Post-emergence herbicidal action; conditions: application rate 20 g/ha, rated visually after about 3 weeks vs untreated controls
Method in brief: as §1

Setaria viridis [13] = assay: Post-emergence herbicidal action; conditions: rated visually after about 3 weeks vs untreated controls
Method in brief: as §1

Oryza sativa = assay: Post-emergence crop plant compatibility
Method in brief: (§2)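 Greenhouse crop plants in sandy loam sprayed at one-leaf stage (2-3 weeks after sowing) with WP or EC formulations plus 0.5% additive, 600 l/ha water, at 5 g/ha or 20 g/ha. Damage scored visually after about 3 weeks as % versus untreated controls (100% = plants dead).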

Zea mays [14] = assay: Post-emergence crop plant compatibility
Method in brief: as §2

Triticum aestivum [15] = assay: Post-emergence crop plant compatibility; conditions: application rate 5 g/ha
Method in brief: as §2

Echinochloa crus-galli [16] = assay: Pre-emergence herbicidal action
Excerpt: (§3) B. Pre-Emergence Herbicidal Action and Crop Plant Compatibility Seeds of monocotyledonous and dicotyledonous weed plants and crop plants were placed in plastic or organic planting pots and covered with soil. The compounds of the invention, formulated in the form of wettable powders (WP) or as emulsion concentrates (EC), were then applied to the surface of the covering soil as aqueous suspension or emulsion with addition of 0.5% additive at a water application rate equivalent to 600 l/ha (converted). After the treatment, the pots were placed in a greenhouse and kept under good growth conditions for the test plants. After about 3 weeks, the effect of the preparations was scored visually in comparison with untreated controls as percentages. For example, 100% activity=the plants have died, 0% activity=like control plants. Tables B1 to B13 below show the effects of selected compounds of the general formula (I) according to Tables I.1 to I.36 on various harmful plants and at an application rate corresponding to 80 g/ha or less, which were obtained by the experimental procedure mentioned above.

Digitaria sanguinalis [17] = assay: Pre-emergence herbicidal action; conditions: application rate 20 g/ha
Excerpt: as §3

Abutilon theophrasti [18] = assay: Pre-emergence herbicidal action; conditions: application rate 20 g/ha
Excerpt: as §3

Amaranthus retroflexus [19] = assay: Pre-emergence herbicidal action; conditions: application rate 20 g/ha
Excerpt: as §3

Matricaria inodora [20] = assay: Pre-emergence herbicidal action; conditions: application rate 20 g/ha
Excerpt: as §3

Pharbitis purpurea [21] = assay: Pre-emergence herbicidal action; conditions: application rate 20 g/ha
Excerpt: as §3

Viola tricolor [22] = assay: Pre-emergence herbicidal action; conditions: application rate 20 g/ha
Excerpt: as §3

Alopecurus myosuroides [23] = assay: Pre-emergence herbicidal action
Excerpt: as §3

Polygonum convolvulus [24] = assay: Pre-emergence herbicidal action; conditions: application rate 20 g/ha
Excerpt: as §3

Lolium rigidum [25] = assay: Pre-emergence herbicidal action; conditions: application rate 80 g/ha
Excerpt: as §3

Veronica persica [26] = assay: Pre-emergence herbicidal action; conditions: application rate 20 g/ha
Excerpt: as §3

Avena fatua [27] = assay: Pre-emergence herbicidal action; conditions: application rate 80 g/ha
Excerpt: as §3

Setaria viridis [28] = assay: Pre-emergence herbicidal action; conditions: application rate 20 g/ha
Excerpt: as §3

Zea mays [29] = assay: Pre-emergence crop plant compatibility; conditions: application rate 20 g/ha
Excerpt: (§4) B. Pre-Emergence Herbicidal Action and Crop Plant Compatibility
as §3, with “Seeds” for “B. Pre-Emergence Herbicidal Action and Crop Plant Compatibility Seeds”, “plants.” for “plants. Tables B1 to B13 below show the effects of selected compounds of the general formula (I) according to Tables I.1 to I.36 on various harmful plants and at an application rate corresponding to 80 g/ha or less, which were obtained by the experimental procedure mentioned above.”
(§5) Tables B14 to B16 below show the crop plant compatibilities of selected compounds of the general formula (I) according to Tables I.1 to I.36 at an application rate corresponding to 20 g/ha, which were obtained in experiments according to the experimental procedure mentioned above. Here, the observed effects on selected crop plants are stated in comparison to the untreated controls (values in %).

Triticum aestivum [30] = assay: Pre-emergence crop plant compatibility; conditions: application rate 20 g/ha
Excerpt: as §4
as §3, with “Seeds” for “B. Pre-Emergence Herbicidal Action and Crop Plant Compatibility Seeds”, “plants.” for “plants. Tables B1 to B13 below show the effects of selected compounds of the general formula (I) according to Tables I.1 to I.36 on various harmful plants and at an application rate corresponding to 80 g/ha or less, which were obtained by the experimental procedure mentioned above.”
as §5

Oryza sativa (efficacy in %) (Oryza sativa; application rate 5 g/ha) [%] | Zea mays (efficacy in %) (Zea mays [14]; application rate 5 g/ha) [%] | Structure (SMILES) | Echinochloa crus-galli (efficacy in %) (Echinochloa crus-galli [1]; application rate 5 g/ha) [%] | Digitaria sanguinalis (efficacy in %) (Digitaria sanguinalis [2]; application rate 5 g/ha) [%] | Abutilon theophrasti (efficacy in %) (Abutilon theophrasti [3]; application rate 5 g/ha) [%] | Amaranthus retroflexus (efficacy in %) (Amaranthus retroflexus [4]; application rate 5 g/ha) [%] | Pharbitis purpurea (efficacy in %) (Pharbitis purpurea [6]; application rate 5 g/ha) [%] | Veronica persica (efficacy in %) (Veronica persica [11]; application rate 5 g/ha) [%] | Avena fatua (efficacy in %) (Avena fatua [12]) [%] | Echinochloa crus-galli (efficacy in %) (Echinochloa crus-galli [1]; application rate 20 g/ha) [%] | Digitaria sanguinalis (efficacy in %) (Digitaria sanguinalis [2]; application rate 20 g/ha) [%] | Amaranthus retroflexus (efficacy in %) (Amaranthus retroflexus [4]; application rate 20 g/ha) [%] | Matricaria inodora (efficacy in %) (Matricaria inodora [5]; application rate 20 g/ha) [%] | Pharbitis purpurea (efficacy in %) (Pharbitis purpurea [6]; application rate 20 g/ha) [%] | Viola tricolor (efficacy in %) (Viola tricolor [7]; application rate 20 g/ha) [%] | Polygonum convolvulus (efficacy in %) (Polygonum convolvulus [9]; application rate 20 g/ha) [%] | Veronica persica (efficacy in %) (Veronica persica [11]; application rate 20 g/ha) [%] | Setaria viridis (efficacy in %) (Setaria viridis [13]; application rate 20 g/ha) [%] | also measured
20 | 20 | Cn1c(C(F)(F)F)cc(=O)n(-c2cc(Sc3cccnc3SCC(=O)OCC3CCCO3)c(Cl)cc2F)c1=O (stereo not shown) [I.10-71] | 100 | 90 | 100 | 100 | 100 | 90 | 80 | – | – | – | – | – | – | – | – | – | Matricaria inodora (efficacy in %) (Matricaria inodora [5]; application rate 5 g/ha): 80%; Hordeum murinum (efficacy in %) (Hordeum murinum): 80%; Stellaria media (efficacy in %) (Stellaria media): 100%; Viola tricolor (efficacy in %) (Viola tricolor [7]; application rate 5 g/ha): 100%; Alopecurus myosuroides (efficacy in %) (Alopecurus myosuroides [8]; application rate 5 g/ha): 80%; Polygonum convolvulus (efficacy in %) (Polygonum convolvulus [9]; application rate 5 g/ha): 100%; Lolium rigidum (efficacy in %) (Lolium rigidum [10]): 80%; Setaria viridis (efficacy in %) (Setaria viridis [13]; application rate 5 g/ha): 100%
0 | 10 | COCCOC(=O)COc1ncccc1Oc1cc(-n2c(=O)cc(C(F)(F)F)n(C)c2=O)c(F)cc1[N+](=O)[O-] [I.14-1] | – | – | – | – | – | – | 80 | 100 | 100 | 100 | 100 | 100 | 100 | 100 | 100 | 100 | Abutilon theophrasti (efficacy in %) (Abutilon theophrasti [3]; application rate 20 g/ha): 100%; Alopecurus myosuroides (efficacy in %) (Alopecurus myosuroides [8]; application rate 20 g/ha): 90%; Lolium rigidum (efficacy in %) (Lolium rigidum [10]): 80%
– | – | COCCOCCOC(=O)COc1ncccc1Oc1cc(-n2c(=O)cc(C(F)(F)F)n(C)c2=O)c(F)cc1[N+](=O)[O-] [I.14-23] | – | – | – | – | – | – | – | 100 | 100 | 100 | 100 | 100 | 100 | 100 | 100 | 100 | Abutilon theophrasti (efficacy in %) (Abutilon theophrasti [3]; application rate 20 g/ha): 100%; Oryza sativa (efficacy in %) (Oryza sativa; application rate 20 g/ha): 10%; Zea mays (efficacy in %) (Zea mays [14]; application rate 20 g/ha): 10%
– | 20 | Cn1c(C(F)(F)F)cc(=O)n(-c2cc(Oc3cccnc3OCC(=O)OC3COC3)c([N+](=O)[O-])cc2F)c1=O [I.14-115] | – | – | – | – | – | – | 80 | 100 | 100 | 100 | 100 | 100 | 100 | 100 | 100 | 100 | Alopecurus myosuroides (efficacy in %) (Alopecurus myosuroides [8]; application rate 20 g/ha): 100%; Oryza sativa (efficacy in %) (Oryza sativa; application rate 20 g/ha): 20%
20 | 20 | Cn1c(C(F)(F)F)cc(=O)n(-c2cc(Oc3cccnc3OCC(=O)OCC#N)c(Cl)cc2F)c1=O [I.15-176] | 100 | 100 | 100 | 100 | 100 | 90 | 90 | – | – | – | 100 | – | – | – | – | – | Hordeum murinum (efficacy in %) (Hordeum murinum): 100%; Stellaria media (efficacy in %) (Stellaria media): 100%; Viola tricolor (efficacy in %) (Viola tricolor [7]; application rate 5 g/ha): 100%; Alopecurus myosuroides (efficacy in %) (Alopecurus myosuroides [8]; application rate 5 g/ha): 80%; Polygonum convolvulus (efficacy in %) (Polygonum convolvulus [9]; application rate 5 g/ha): 100%; Setaria viridis (efficacy in %) (Setaria viridis [13]; application rate 5 g/ha): 100%; Triticum aestivum (efficacy in %) (Triticum aestivum [15]): 20%
0 | 20 | Cn1c(C(F)(F)F)cc(=O)n(-c2cc(Oc3cccnc3OCC(=O)OC[Si](C)(C)C)c(Cl)cc2F)c1=O [I.15-201] | 100 | 100 | 100 | 100 | 100 | 100 | – | – | – | – | – | – | – | – | – | – | Echinochloa crus-galli (efficacy in %) (Echinochloa crus-galli [16]; application rate 80 g/ha): 100%; Digitaria sanguinalis (efficacy in %) (Digitaria sanguinalis [17]): 100%; Abutilon theophrasti (efficacy in %) (Abutilon theophrasti [18]): 100%; Amaranthus retroflexus (efficacy in %) (Amaranthus retroflexus [19]): 100%; Matricaria inodora (efficacy in %) (Matricaria inodora [20]): 100%; Pharbitis purpurea (efficacy in %) (Pharbitis purpurea [21]): 100%; Viola tricolor (efficacy in %) (Viola tricolor [22]): 100%; Alopecurus myosuroides (efficacy in %) (Alopecurus myosuroides [23]; application rate 80 g/ha): 100%; Polygonum convolvulus (efficacy in %) (Polygonum convolvulus [24]): 100%; Lolium rigidum (efficacy in %) (Lolium rigidum [25]): 100%; Veronica persica (efficacy in %) (Veronica persica [26]): 100%; Avena fatua (efficacy in %) (Avena fatua [27]): 100%; Setaria viridis (efficacy in %) (Setaria viridis [28]): 100%; Zea mays (efficacy in %) (Zea mays [29]): 0%
– | – | Cn1c(C(F)(F)F)cc(=O)n(-c2cc(Oc3cccnc3OCC(=O)OCC3OCCO3)c(Cl)cc2F)c1=O [I.15-424] | 100 | 100 | 100 | 100 | 100 | 100 | 100 | – | – | – | – | – | – | – | – | – | Echinochloa crus-galli (efficacy in %) (Echinochloa crus-galli [16]; application rate 20 g/ha): 90%; Digitaria sanguinalis (efficacy in %) (Digitaria sanguinalis [17]): 100%; Abutilon theophrasti (efficacy in %) (Abutilon theophrasti [18]): 100%; Amaranthus retroflexus (efficacy in %) (Amaranthus retroflexus [19]): 100%; Matricaria inodora (efficacy in %) (Matricaria inodora [20]): 100%; Pharbitis purpurea (efficacy in %) (Pharbitis purpurea [21]): 100%; Viola tricolor (efficacy in %) (Viola tricolor [22]): 100%; Alopecurus myosuroides (efficacy in %) (Alopecurus myosuroides [23]; application rate 20 g/ha): 80%; Polygonum convolvulus (efficacy in %) (Polygonum convolvulus [24]): 100%; Lolium rigidum (efficacy in %) (Lolium rigidum [25]): 100%; Veronica persica (efficacy in %) (Veronica persica [26]): 100%; Avena fatua (efficacy in %) (Avena fatua [27]): 100%; Setaria viridis (efficacy in %) (Setaria viridis [28]): 100%; Matricaria inodora (efficacy in %) (Matricaria inodora [5]; application rate 5 g/ha): 100%; Triticum aestivum (efficacy in %) (Triticum aestivum [30]): 10%
